According to ChEMBL document CHEMBL4017449, “Inhibition of Malassezia globosa carbonic anhydrase with phenols” (Bioorg Med Chem, 2017):

Key:
[1] = Inhibition of Malassezia globosa recombinant beta-carbonic anhydrase preincubated for 15 mins prior to testing measured for 10 to 100 secs by phenol red-based stopped-flow CO2 hydration assay
[2] = target: Carbonic anhydrase 2 (Homo sapiens, UniProt P00918); assay: Inhibition of human recombinant carbonic anhydrase 2 preincubated for 15 mins prior to testing measured for 10 to 100 secs by phenol red-based stopped-flow CO2 hydration assay
[3] = target: Carbonic anhydrase 1 (Homo sapiens, UniProt P00915); assay: Inhibition of human recombinant carbonic anhydrase 1 preincubated for 15 mins prior to testing measured for 10 to 100 secs by phenol red-based stopped-flow CO2 hydration assay
Sequence of Carbonic anhydrase 1 (P00915 whole entry): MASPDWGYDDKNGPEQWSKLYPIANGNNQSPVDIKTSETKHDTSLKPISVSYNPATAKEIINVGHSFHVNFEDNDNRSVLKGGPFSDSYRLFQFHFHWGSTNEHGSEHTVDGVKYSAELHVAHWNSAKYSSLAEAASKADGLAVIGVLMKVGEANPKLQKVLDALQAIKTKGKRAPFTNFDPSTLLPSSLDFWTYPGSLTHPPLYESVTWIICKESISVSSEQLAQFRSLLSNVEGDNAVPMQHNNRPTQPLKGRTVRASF

Compound	Ki [1]	Ki [2]	Ki [3]
Oc1ccccc1 [PHENOL]	65 µM		
N#Cc1ccc(O)cc1 [4-CYANOPHENOL]	0.7 µM		
O=C(O)c1c(O)cccc1O	5.9 µM		
Oc1cc(F)ccc1F	29.7 µM		
Oc1c(F)cc(F)cc1F	36.4 µM	> 100 µM	> 100 µM
O=C(O)c1ccccc1O [SALICYLIC ACID]	6.6 µM		
CC(=O)Nc1nnc(S(N)(=O)=O)s1 [ACETAZOLAMIDE]	74 µM		
Nc1ccc(O)c(Cl)c1	> 100 µM	57.5 µM	57.8 µM
Oc1cc(F)cc(F)c1	8.8 µM		
Nc1ccc(O)cc1 [4-AMINOPHENOL]	32 µM		

Other lines, results leading:

Ki [1]	Ki [2]	Ki [3]	Compound
6.3 µM			Oc1ccc(O)cc1 [HYDROQUINONE]
4.9 µM			O=C(O)c1ccc(O)cc1 [PARABEN]
6.5 µM			O=C(O)c1ccc(O)c(O)c1 [PROTOCATECHUIC ACID]
3.9 µM			Nc1cccc(O)c1 [3-AMINOPHENOL]
4.5 µM			O=C(O)c1cc(O)ccc1O [GENTISIC ACID]
0.6 µM			O=C(O)/C=C/c1ccc(O)c(O)c1 [CAFFEIC ACID]
2.5 µM			CC(=O)Nc1ccc(O)cc1 [ACETAMINOPHEN]
6.1 µM			Oc1cccc(O)c1 [RESORCINOL]
3.3 µM			O=C(O)/C=C/c1ccc(O)cc1 [COUMARIC ACID]
7 µM			Oc1ccccc1O [CATECHOL]
6.1 µM			OCc1ccc(O)cc1 [PARAHYDROXYBENZYL ALCOHOL]
44.9 µM			Nc1cc(O)ccc1Cl
7.4 µM	> 100 µM	> 100 µM	Oc1ccc(O)c(O)c1
